# Literature values, collected in patent publication US20170333571A1, “Targeted Delivery Platform for Delivery of Therapeutics” (The Regents of the University of California, priority 2014, published 2017).
# No end group written: not given here.
# System: colitis-induced inflammation
# Conditions: exogenous administration, rats and mice
substance,measurement,value
"Ucn1: small peptide (~38 aa), Urocortin 1 (DNPSLSIDLTFHLLRTLLELARTQSQRERAEQNRIIFDSV; ends and bridges not checked; also: 5FAM label, position not given here (in delivery test); UniProt P55089 83-122, looked up)",colitis-induced inflammation,reduces colitis-induced inflammation
